# Measured values taken from patent US11358952B2, “Substituted 4-aminoisoindoline-1,3-dione compounds, compositions thereof, and methods of treatment therewith” (Celgene Corporation, priority 2018, dated 2022).
# Tested on: SU-DHL-4 cell line
# Assay: SU-DHL-4 cell proliferation assay (Cell Titer-Glo viability)
# Format: cell-based
# Conditions: Homo sapiens; cell viability IC50 activity level, DLBCL cell line SU-DHL-4, 120 hours post-treatment; read-out: SU-DHL-4 Act
# Procedure, shortened: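 Viability read by ATP luminescence (Cell Titer-Glo) at the start and after 120 h of growth at 37°C in 5% CO2. DLBCL cells were seeded at 500 per well with compound across 0.5 nM–10 μM in 20 points, 0.1% DMSO. A four-parameter sigmoidal fit gave IC50 as 50% of DMSO control.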
row,IC50 [nM],Structure (SMILES)
1,< 200,"CCC1(OC)CCN(Cc2ccc(CNc3cccc4c3C(=O)N(C3CCC(=O)NC3=O)C4=O)c(F)c2)CC1 (stereo not shown) [Cpd 156, 2-(2,6-dioxopiperidin-3-yl)-4-(4-((4-ethyl-4-methoxypiperidin-1-yl)methyl)-2-fluorobenzylamino)isoindoline-1,3-dione]"
2,200 to 500,"O=C1CCC(N2C(=O)c3cccc(NCc4ccc(CN5CCC(N6CCOCC6)CC5)cc4)c3C2=O)C(=O)N1 (stereo not shown) [Cpd 210, 2-(2,6-dioxopiperidin-3-yl)-4-(4-((4-morpholinopiperidin-1-yl)methyl)benzylamino)isoindoline-1,3-dione]"
3,< 200,"Cc1cc(CNc2cccc3c2C(=O)N(C2CCC(=O)NC2=O)C3=O)ccc1CN1CC(C(C)C)C1 (stereo not shown) [Cpd 202, 2-(2,6-dioxopiperidin-3-yl)-4-(4-((3-isopropylazetidin-1-yl)methyl)-3-methylbenzylamino)isoindoline-1,3-dione]"
4,< 200,"Cc1cc(CNc2cccc3c2C(=O)N(C2CCC(=O)NC2=O)C3=O)ccc1CN1CC(c2ccc(C#N)cc2)C1 (stereo not shown) [Cpd 51, 4-(1-(4-((2-(2,6-dioxopiperidin-3-yl)-1,3-dioxoisoindolin-4-ylamino)methyl)-2-methylbenzyl)aetidin-3-yl)benzonitrile]"
5,200 to 500,"Cc1cc(CNc2cccc3c2C(=O)N(C2CCC(=O)NC2=O)C3=O)ccc1CN1CCN(CC2CC2)CC1 (stereo not shown) [Cpd 65, 4-(4-((4-(cyclopropylmethyl)piperazin-1-yl)methyl)-3-methylbenzylamino)-2-(2,6-dioxopiperidin-3-yl)isoindoline-1,3-dione]"
6,< 200,"NC(=O)c1ccc(N2CCN(Cc3ccc(CNc4cccc5c4C(=O)N([C@@H]4CCC(=O)NC4=O)C5=O)cc3)CC2)cn1 [Cpd 91, (R)-5-(4-(4-((2-(2,6-dioxopiperidin-3-yl)-1,3-dioxoisoindolin-4-ylamino)methyl)benzyl)piperazin-1-yl)picolinamide]"
7,< 200,"Cc1cc(CNc2cccc3c2C(=O)N(C2CCC(=O)NC2=O)C3=O)ccc1CN1CC(c2cccnc2)C1 (stereo not shown) [Cpd 80, 2-(2,6-dioxopiperidin-3-yl)-4-(3-methyl-4-((3-(pyridin-3-yl)azetidin-1-yl)methyl)benzylamino)isoindoline-1,3-dione]"
8,200 to 500,"O=C1CCC(N2C(=O)c3cccc(NCc4ccc(CN5CCN(c6ccc(F)cn6)CC5)cc4)c3C2=O)C(=O)N1 (stereo not shown) [Cpd 32, 2-(2,6-dioxopiperidin-3-yl)-4-(4-((4-(5-fluoropyridin-2-yl)piperazin-1-yl)methyl)benzylamino)isoindoline-1,3-dione]"
9,< 200,"CCS(=O)(=O)N1CCN(Cc2ccc(CNc3cccc4c3C(=O)N(C3CCC(=O)NC3=O)C4=O)cc2F)CC1 (stereo not shown) [Cpd 161, 2-(2,6-dioxopiperidin-3-yl)-4-(4-((4-(ethylsulfonyl)piperazin-1-yl)methyl)-3-fluorobenzylamino)isoindoline-1,3-dione]"
10,< 200,"CCS(=O)(=O)N1CCN(Cc2ccc(CNc3cccc4c3C(=O)N(C3CCC(=O)NC3=O)C4=O)c(F)c2)CC1 (stereo not shown) [Cpd 160, 2-(2,6-dioxopiperidin-3-yl)-4-(4-((4-(ethylsulfonyl)piperazin-1-yl)methyl)-2-fluorobenzylamino)isoindoline-1,3-dione]"
11,< 200,"O=C1CCC(N2C(=O)c3cccc(NCc4ccc(CN5CC6(CCOC6)C5)cc4F)c3C2=O)C(=O)N1 (stereo not shown) [Cpd 241, 4-(4-(6-oxa-2-azaspiro[3.4]octan-2-ylmethyl)-2-fluorobenzylamino)-2-(2,6-dioxopiperidin-3-yl)isoindoline-1,3-dione]"
12,200 to 500,"O=C1CCC(N2C(=O)c3cccc(NCc4ccc(CN5CCN(c6ccc(Cl)cc6)CC5)cc4)c3C2=O)C(=O)N1 (stereo not shown) [Cpd 3, 4-(4-((4-(4-chlorophenyl)piperazin-1-yl)metthyl)benzylamino)-2-(2,6-dioxopiperidin-3-yl)isoindoline-1,3-dione]"
13,200 to 500,"O=C1CCC(N2C(=O)c3cccc(NCc4ccc(CN5CCC(n6cccn6)CC5)c(F)c4)c3C2=O)C(=O)N1 (stereo not shown) [Cpd 106, 4-(4-((4-(1H-pyrazol-1-yl)piperidin-1-yl)methyl)-3-fluorobenzylamino)-2-(2,6-dioxopiperidin-3-yl)isoindoline-1,3-dione]"
14,200 to 500,"Cn1cc(N2CCN(Cc3ccc(CNc4cccc5c4C(=O)N(C4CCC(=O)NC4=O)C5=O)cc3)CC2)cn1 (stereo not shown) [Cpd 195, 2-(2,6-dioxopiperidin-3-yl)-4-(4-((4-(1-methyl-1H-pyrazol-4-yl)piperazin-1-yl)methyl)benzylamino)isoindoline-1,3-dione]"
15,200 to 500,"O=C1CCC(N2C(=O)c3cccc(NCc4ccc(CN5CC(c6ccc(F)cc6)C5)cc4)c3C2=O)C(=O)N1 (stereo not shown) [Cpd 14, 2-(2,6-dioxopiperidin-3-yl)-4-(4-((3-(4-fluorophenyl)azetidin-1-yl)methyl)benzylamino)isoindoline-1,3-dione]"
16,< 200,"O=C1CCC(N2C(=O)c3cccc(NCc4ccc(CN5CCN(c6ncccc6F)CC5)cc4)c3C2=O)C(=O)N1 (stereo not shown) [Cpd 30, 2-(2,6-dioxopiperidin-3-yl)-4-(4-((4-(3-fluoropyridin-2-yl)piperazin-1-yl)methyl)benzylamino)isoindoline-1,3-dione]"
17,< 200,"CC1(C)CN(c2ccc(C(N)=O)nc2)CCN1Cc1ccc(CNc2cccc3c2C(=O)N(C2CCC(=O)NC2=O)C3=O)cc1 (stereo not shown) [Cpd 86, 5-(4-(4-((2-(2,6-dioxopiperidin-3-yl)-1,3-dioxoisoindolin-4-ylamino)methyl)benzyl)-3,3-dimethylpiperazin-1-yl)picolinamide]"
18,501 to 750,"Cc1cc(CNc2cccc3c2C(=O)N(C2CCC(=O)NC2=O)C3=O)ccc1CN1CC(Oc2ccccc2)C1 (stereo not shown) [Cpd 82, 2-(2,6-dioxopiperidin-3-yl)-4-(3-methyl-4-((3-phenoxyazetidin-1-yl)methyl)benzylamino)isoindoline-1,3-dione]"
19,< 200,"Cc1cc(CNc2cccc3c2C(=O)N(C2CCC(=O)NC2=O)C3=O)ccc1CN1CCN(c2ccc(C#N)cn2)CC1 (stereo not shown) [Cpd 63, 6-(4-(4-((2-(2,6-dioxopiperidin-3-yl)-1,3-dioxoisoindolin-4-ylamino)methyl)-2-methylbenzyl)piperazin-1-yl)nicotinonitrile]"
20,< 200,CCS(=O)(=O)C1CCN(Cc2ccc(CNc3cccc4c3C(=O)N(C3CCC(=O)NC3=O)C4=O)c(F)c2)CC1 (stereo not shown) [Cpd 173]
21,< 200,"CC(C)(C)C1CCN(Cc2ccc(CNc3cccc4c3C(=O)N(C3CCC(=O)NC3=O)C4=O)c(F)c2)CC1 (stereo not shown) [Cpd 94, 4-(4-((4-tert-butylpiperidin-1-yl)methyl)-2-fluorobenzylamino)-2-(2,6-dioxopiperidin-3-yl)isoindoline-1,3-dione]"
22,200 to 500,"CN(C)C(=O)c1ccc(N2CCN(Cc3ccc(CNc4cccc5c4C(=O)N(C4CCC(=O)NC4=O)C5=O)cc3)CC2)cn1 (stereo not shown) [Cpd 55, 5-(4-(4-((2-(2,6-dioxopiperidin-3-yl)-1,3-dioxoisoindolin-4-ylamino)methyl)benzyl)piperazin-1-yl)-N,N-dimethylpicolinamide]"
23,< 200,"CCOC1(C)CCN(Cc2ccc(CNc3cccc4c3C(=O)N(C3CCC(=O)NC3=O)C4=O)cc2F)CC1 (stereo not shown) [Cpd 159, 2-(2,6-dioxopiperidin-3-yl)-4-(4-((4-ethoxy-4-methylpiperidin-1-yl)methyl)-3-fluorobenzylamino)isoindoline-1,3-dione]"
24,751 to 1000,"N#Cc1cccc(C2CN(Cc3ccc(CNc4cccc5c4C(=O)N(C4CCC(=O)NC4=O)C5=O)cc3)C2)c1 (stereo not shown) [Cpd 15, 3-(1-(4-((2-(2,6-dioxopiperidin-3-yl)-1,3-dioxoisoindolin-4-ylamino)methyl)benzyl)azetidin-3-yl)benzonitrile]"
25,< 200,"N#Cc1cccc(C2CN(Cc3ccc(CNc4cccc5c4C(=O)N(C4CCC(=O)NC4=O)C5=O)cc3F)C2)c1 (stereo not shown) [Cpd 120, 3-(1-(4-((2-(2,6-dioxopiperidin-3-yl)-1,3-dioxoisoindolin-4-ylamino)methyl)-2-fluorobenzyl)azetidin-3-yl)benzonitrile]"
26,< 200,"Cc1cc(CNc2cccc3c2C(=O)N(C2CCC(=O)NC2=O)C3=O)ccc1CN1CC(N2CCOCC2)C1 (stereo not shown) [Cpd 201, 2-(2,6-dioxopiperidin-3-yl)-4-(3-methyl-4-((3-morpholinoazetidin-1-yl)methyl)benzylamino)isoindoline-1,3-dione]"
27,< 200,"Cc1nsc(N2CCN(Cc3ccc(CNc4cccc5c4C(=O)N(C4CCC(=O)NC4=O)C5=O)cc3)CC2)n1 (stereo not shown) [Cpd 194, 2-(2,6-dioxopiperidin-3-yl)-4-(4-((4-(3-methyl-1,2,4-thiadiazol-5-yl)piperazin-1-yl)methyl)benzylamino)isoindoline-1,3-dione]"
28,< 200,"NC(=O)c1cccc(N2CCN(Cc3ccc(CNc4cccc5c4C(=O)N(C4CCC(=O)NC4=O)C5=O)cc3F)CC2)n1 (stereo not shown) [Cpd 183, 6-(4-(4-((2-(2,6-dioxopiperidin-3-yl)-1,3-dioxoisoindolin-4-ylamino)methyl)-2-fluorobenzyl)piperazin-1-yl)picolinamide]"

row,Structure (SMILES),IC50 [nM]
1,"CC(C)(C)OC1CCN(Cc2ccc(CNc3cccc4c3C(=O)N(C3CCC(=O)NC3=O)C4=O)cc2)CC1 (stereo not shown) [Cpd 38, 4-(4-((4-tert-butoxypiperidin-1-yl)methyl)benzylamino)-2-(2,6-dioxopiperidin-3-yl)isoindoline-1,3-dione]",< 200
2,"CC(C)COC1CCN(Cc2ccc(CNc3cccc4c3C(=O)N(C3CCC(=O)NC3=O)C4=O)cc2)CC1 (stereo not shown) [Cpd 125, 2-(2,6-dioxopiperidin-3-yl)-4-(4-((4-isobutoxypiperidin-1-yl)methyl)benzylamino)isoindoilne-1,3-dione]",200 to 500
3,"O=C1CCC(N2C(=O)c3cccc(NCc4ccc(CN5CC(N6C7CCC6COC7)C5)cc4F)c3C2=O)C(=O)N1 (stereo not shown) [Cpd 246, 4-(4-((3-(3-oxa-8-azabicyclo[3.2.1]octan-8-yl)azetidin-1-yl)methyl)-2-fluorobenzylamino)-2-(2,6-dioxopiperidin-3-yl)isoindoline-1,3-dione]",< 200
